Results: PubChem BioAssay (NCI)
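48-hour exposure; five concentrations; linearly interpolated endpoints. GI50: concentration for 50% inhibition of growth. The concentration for full growth arrest is given as TGI.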

Tests used:
Experiment in all cases: NCI anticancer screen, dose series, 48 h
786-0 renal = system: 786-0 renal
A498 renal = system: A498 renal
A549 NSCLC = system: A549 NSCLC
ACHN renal = system: ACHN renal
BT-549 breast = system: BT-549 breast
CAKI-1 renal = system: CAKI-1 renal
CCRF-CEM leukemia = system: CCRF-CEM leukemia
COLO 205 colon = system: COLO 205 colon
DU-145 prostate = system: DU-145 prostate
HCC-2998 colon = system: HCC-2998 colon
HCT-116 colon = system: HCT-116 colon
HCT-15 colon = system: HCT-15 colon
HL-60(TB) leukemia = system: HL-60(TB) leukemia
HOP-62 NSCLC = system: HOP-62 NSCLC
HOP-92 NSCLC = system: HOP-92 NSCLC
HS 578T breast = system: HS 578T breast
HT29 colon = system: HT29 colon
IGROV1 ovarian = system: IGROV1 ovarian
K-562 leukemia = system: K-562 leukemia
KM12 colon = system: KM12 colon
LOX IMVI melanoma = system: LOX IMVI melanoma
M14 melanoma = system: M14 melanoma
MALME-3M melanoma = system: MALME-3M melanoma
MCF7 breast = system: MCF7 breast
MDA-MB-231 breast = system: MDA-MB-231 breast
MDA-MB-435 = system: MDA-MB-435
MOLT-4 leukemia = system: MOLT-4 leukemia
NCI-H226 lung = system: NCI-H226 lung
NCI-H23 lung = system: NCI-H23 lung
NCI-H460 lung = system: NCI-H460 lung
NCI-H522 lung = system: NCI-H522 lung
NCI/ADR-RES ovarian = system: NCI/ADR-RES ovarian
OVCAR-3 ovarian = system: OVCAR-3 ovarian
OVCAR-4 ovarian = system: OVCAR-4 ovarian
OVCAR-5 ovarian = system: OVCAR-5 ovarian
OVCAR-8 ovarian = system: OVCAR-8 ovarian
PC-3 prostate = system: PC-3 prostate
RPMI-8226 leukemia = system: RPMI-8226 leukemia
RXF 393 renal = system: RXF 393 renal
SF-268 CNS = system: SF-268 CNS
SF-295 CNS = system: SF-295 CNS
SF-539 CNS = system: SF-539 CNS
SK-MEL-2 melanoma = system: SK-MEL-2 melanoma
SK-MEL-28 melanoma = system: SK-MEL-28 melanoma
SK-MEL-5 melanoma = system: SK-MEL-5 melanoma
SK-OV-3 ovarian = system: SK-OV-3 ovarian
SN12C renal = system: SN12C renal
SNB-19 CNS = system: SNB-19 CNS
SNB-75 CNS = system: SNB-75 CNS
SR leukemia = system: SR leukemia
SW-620 colon = system: SW-620 colon
T-47D breast = system: T-47D breast
TK-10 renal = system: TK-10 renal
U251 CNS = system: U251 CNS
UACC-257 melanoma = system: UACC-257 melanoma
UACC-62 melanoma = system: UACC-62 melanoma
UO-31 renal = system: UO-31 renal

`c1csc(-c2[nH]nc3c2CCc2ccccc2-3)c1` showed a GI50 (786-0 renal) of 21.3 µM, a TGI (786-0 renal) of 51 µM and a GI50 (A498 renal) of 14.3 µM. For the same molecule, the TGI (A498 renal) was 32.4 µM, the GI50 (A549 NSCLC) was 13 µM and the TGI (A549 NSCLC) was 55.4 µM. It also gave a GI50 (ACHN renal) of 18.1 µM, a TGI (ACHN renal) of 85 µM and a GI50 (BT-549 breast) of 16.1 µM. The TGI (BT-549 breast) was 31.9 µM, the GI50 (CAKI-1 renal) was 19.6 µM and the TGI (CAKI-1 renal) was 58.1 µM. It also gave a GI50 (CCRF-CEM leukemia) of 21.7 µM, a TGI (CCRF-CEM leukemia) of 73.3 µM and a GI50 (COLO 205 colon) of 0.766 µM. For the same molecule, the TGI (COLO 205 colon) was 8.17 µM, the GI50 (DU-145 prostate) was 23.4 µM and the TGI (DU-145 prostate) was 71.3 µM. The GI50 (HCC-2998 colon) was 1.15 µM, the TGI (HCC-2998 colon) was 28.6 µM and the GI50 (HCT-116 colon) was 14.9 µM. For the same molecule, the TGI (HCT-116 colon) was 29.3 µM, the GI50 (HCT-15 colon) was 0.289 µM and the TGI (HCT-15 colon) was 18.6 µM. For the same molecule, the GI50 (HL-60(TB) leukemia) was 20.5 µM, the TGI (HL-60(TB) leukemia) was 47.3 µM and the GI50 (HOP-62 NSCLC) was 12.8 µM. For the same molecule, the TGI (HOP-62 NSCLC) was 28.7 µM, the GI50 (HOP-92 NSCLC) was 1.88 µM and the TGI (HOP-92 NSCLC) was 20.4 µM. The GI50 (HS 578T breast) was 14.5 µM, the TGI (HS 578T breast) was 55.4 µM and the GI50 (HT29 colon) was 15.6 µM. For the same molecule, the TGI (HT29 colon) was 42.6 µM, the GI50 (IGROV1 ovarian) was 19.4 µM and the TGI (IGROV1 ovarian) was 73 µM. It also gave a GI50 (K-562 leukemia) of 22 µM, a TGI (K-562 leukemia) of 68.6 µM and a GI50 (KM12 colon) of 0.406 µM. The TGI (KM12 colon) was 14.9 µM, the GI50 (LOX IMVI melanoma) was 15.7 µM and the TGI (LOX IMVI melanoma) was 29.4 µM. For the same molecule, the GI50 (M14 melanoma) was 17.8 µM, the TGI (M14 melanoma) was 38 µM and the GI50 (MALME-3M melanoma) was 19.8 µM. For the same molecule, the TGI (MALME-3M melanoma) was 50.4 µM, the GI50 (MCF7 breast) was 0.23 µM and the TGI (MCF7 breast) was 11.8 µM. It also gave a GI50 (MDA-MB-231 breast) of 0.966 µM, a TGI (MDA-MB-231 breast) of 19.5 µM and a GI50 (MDA-MB-435) of 19.2 µM. For the same molecule, the TGI (MDA-MB-435) was 42.6 µM, the GI50 (MOLT-4 leukemia) was 14.9 µM and the TGI (MOLT-4 leukemia) was 53.8 µM. The GI50 (NCI-H226 lung) was 13.5 µM, the TGI (NCI-H226 lung) was 42.2 µM and the GI50 (NCI-H23 lung) was 16.1 µM. The TGI (NCI-H23 lung) was 42.9 µM, the GI50 (NCI-H460 lung) was 9.12 µM and the TGI (NCI-H460 lung) was 34.3 µM. For the same molecule, the GI50 (NCI-H522 lung) was 18.9 µM, the TGI (NCI-H522 lung) was 44.9 µM and the GI50 (NCI/ADR-RES ovarian) was 17.7 µM. For the same molecule, the TGI (NCI/ADR-RES ovarian) was 49.3 µM, the GI50 (OVCAR-3 ovarian) was 3.35 µM and the TGI (OVCAR-3 ovarian) was 19.7 µM. It also gave a GI50 (OVCAR-4 ovarian) of 2.12 µM, a TGI (OVCAR-4 ovarian) of 37.3 µM and a GI50 (OVCAR-5 ovarian) of 0.959 µM. For the same molecule, the TGI (OVCAR-5 ovarian) was 32.4 µM, the GI50 (OVCAR-8 ovarian) was 18.7 µM and the TGI (OVCAR-8 ovarian) was 56.8 µM. For the same molecule, the GI50 (PC-3 prostate) was 12.5 µM, the TGI (PC-3 prostate) was 37.5 µM and the GI50 (RPMI-8226 leukemia) was 15.6 µM. The TGI (RPMI-8226 leukemia) was 55.4 µM, the GI50 (RXF 393 renal) was 16.9 µM and the TGI (RXF 393 renal) was 37.4 µM. It also gave a GI50 (SF-268 CNS) of 16.7 µM, a TGI (SF-268 CNS) of 55 µM and a GI50 (SF-295 CNS) of 16.4 µM. The TGI (SF-295 CNS) was 38.7 µM, the GI50 (SF-539 CNS) was 12.9 µM and the TGI (SF-539 CNS) was 29 µM. For the same molecule, the GI50 (SK-MEL-2 melanoma) was 19.7 µM, the TGI (SK-MEL-2 melanoma) was 37.9 µM and the GI50 (SK-MEL-28 melanoma) was 19.2 µM. It also gave a TGI (SK-MEL-28 melanoma) of 39.7 µM, a GI50 (SK-MEL-5 melanoma) of 13 µM and a TGI (SK-MEL-5 melanoma) of 26 µM. For the same molecule, the GI50 (SK-OV-3 ovarian) was 24.6 µM, the TGI (SK-OV-3 ovarian) was 65.6 µM and the GI50 (SN12C renal) was 14.8 µM. The TGI (SN12C renal) was 30.2 µM, the GI50 (SNB-19 CNS) was 13.3 µM and the TGI (SNB-19 CNS) was greater than 65.9 µM. It also gave a GI50 (SNB-75 CNS) of 4.25 µM, a TGI (SNB-75 CNS) of 35 µM and a GI50 (SR leukemia) of 21.9 µM. The TGI (SR leukemia) was 66.3 µM, the GI50 (SW-620 colon) was 20.3 µM and the TGI (SW-620 colon) was 46.1 µM. For the same molecule, the GI50 (T-47D breast) was 0.17 µM, the TGI (T-47D breast) was 0.515 µM and the GI50 (TK-10 renal) was 0.862 µM. The TGI (TK-10 renal) was 61.6 µM, the GI50 (U251 CNS) was 11.6 µM and the TGI (U251 CNS) was 26.3 µM. The GI50 (UACC-257 melanoma) was 19.8 µM, the TGI (UACC-257 melanoma) was 49.1 µM and the GI50 (UACC-62 melanoma) was 13.6 µM. For the same molecule, the TGI (UACC-62 melanoma) was 27.8 µM, the GI50 (UO-31 renal) was 6.4 µM and the TGI (UO-31 renal) was 34.9 µM.
